pIC50, pKi: −log10 of the molar value.
biological target: Human immunodeficiency virus type 1 protease (Human immunodeficiency virus 1, UniProt Q72874); assay: Tested for inhibitory activity against the recombinant HIV-1 protease

First: CC(C)(C)OC(=O)NC(C[Si](C)(C)C)C(=O)C(F)(F)C(=O)NCc1ccccc1 (stereo not drawn)
Second: CC(C)(C)OC(=O)NC(Cc1ccc(O)cc1)C(=O)C(F)(F)C(=O)NCc1ccccc1 (stereo not drawn)
The pKi of the first is 3.92 log units lower: 5.60 for the first, 9.52 for the second. The second binds more tightly here.

Going from `O=C(Cc1ccccc1)NCC(F)(F)C(=O)C(Cc1ccccc1)NC(=O)OCc1ccccc1` (stereo not drawn) to `O=C(NC(Cc1ccccc1)C(=O)C(F)(F)C(=O)NCc1ccccc1)OCc1ccccc1` (stereo not drawn), the pKi rises from 1.22 to 9.22 (8.00 log units). The second binds more tightly here.

Compared with `CCC[C@H](NC(=O)OCc1ccccc1)C(=O)NC(Cc1ccccc1)C(=O)C(F)(F)C(=O)NCc1ccccc1` (stereo partly drawn), `CC(C)C(NC(=O)OCc1ccccc1)C(=O)NC(Cc1ccccc1)C(=O)C(F)(F)C(=O)NCc1ccccc1` (stereo not drawn) is 5.60 log units higher in pKi: 3.40 for the first, 9.00 for the second.

Going from `CON[C@H](C(=O)N[C@H](C(=O)NC(=O)C(F)(F)C(=O)[C@H](Cc1ccccc1)NC(=O)[C@H](C)NC(=O)[C@H](C)NC(=O)[C@H](CO)NC(=O)OC(C)(C)C)C(C)C)C(C)C` to `CC(C)(C)CNC(=O)C(F)(F)C(=O)C(Cc1ccccc1)NC(=O)OCc1ccccc1` (stereo not drawn), the pKi rises from 3.80 to 6.19 (2.39 log units). The second binds more tightly here.

First: O=C(NC(Cc1cccc2ccccc12)C(=O)C(F)(F)C(=O)NCc1ccccc1)OCc1ccccc1 (stereo not drawn)
Second: C[Si](C)(C)CC(NC(=O)OCc1ccccc1)C(=O)C(F)(F)C(=O)NCc1ccccc1 (stereo not drawn)
The pKi of the first is lower: under 3.00 for the first, 4.92 for the second. The second binds more tightly here.

Compared with `C[Si](C)(C)CNC(=O)C(F)(F)C(=O)C(Cc1ccccc1)NC(=O)OCc1ccccc1` (stereo not drawn), `CN(Cc1ccccc1)C(=O)C(=O)C(=O)C(Cc1ccccc1)NC(=O)OCc1ccccc1` (stereo not drawn) is 3.92 log units lower in pKi: 6.22 for the first, 2.30 for the second. The first binds more tightly here.

In order of falling pIC50:
1. CC(C)(C)OC(=O)NC(Cc1ccccc1)C(=O)C(F)(F)C(=O)NCc1ccccc1 (stereo not drawn)  8.40
2. CC(C)(C)[C@H](NC(=O)OCc1ccccc1)C(=O)NC(Cc1ccccc1)C(=O)C(F)(F)C(=O)NCc1ccccc1 (stereo partly drawn)  7.57
3. CC(C)C(NC(=O)OCc1ccccc1)C(=O)NC(Cc1ccccc1)C(=O)C(F)(F)C(=O)CCc1ccccc1 (stereo not drawn)  7.00
4. NC(=O)C(F)(F)C(=O)C(Cc1ccccc1)NC(=O)OCc1ccccc1 (stereo not drawn)  3.52
5. CC(C)CC(NC(=O)OCc1ccccc1)C(=O)NC(Cc1ccccc1)C(=O)C(F)(F)C(=O)NCc1ccccc1 (stereo not drawn)  3.12
6. CC(C)C(NC(=O)OCc1ccccc1)C(=O)NC(Cc1ccccc1)C(O)C(F)(F)C(=O)NCc1ccccc1 (stereo not drawn)  2.30

Source: ChEMBL document CHEMBL1159181, “Short and unexpectedly potent difluorostatone type inhibitors of HIV-1 protease” (Bioorg Med Chem Lett, 1993)
